These results are taken from ChEMBL document CHEMBL4402532, “Heme Oxygenase-2 (HO-2) as a therapeutic target: Activators and inhibitors” (Eur J Med Chem, 2019).

What all share (type): microsomes
The target in assay [1] is T1, Heme oxygenase 2 (Rattus norvegicus) (UniProt P23711).
T1 sequence (whole entry): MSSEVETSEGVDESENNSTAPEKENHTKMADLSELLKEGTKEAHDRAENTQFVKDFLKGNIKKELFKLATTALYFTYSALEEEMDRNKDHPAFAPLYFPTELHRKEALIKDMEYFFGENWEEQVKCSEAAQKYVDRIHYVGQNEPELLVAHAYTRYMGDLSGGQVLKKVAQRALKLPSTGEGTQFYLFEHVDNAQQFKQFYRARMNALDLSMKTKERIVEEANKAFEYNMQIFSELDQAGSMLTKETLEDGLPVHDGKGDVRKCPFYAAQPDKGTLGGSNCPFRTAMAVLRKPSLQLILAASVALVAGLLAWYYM
The assay can be described thus: Activation of rat brain microsome HO-2 […] preincubated for 10 mins followed by NADPH addition and measured after 15 mins by gas chromatography relative to control. Also on record: concentration or dose not given beside the values.

The target of assay [2] is T2, Heme oxygenase 1 (Rattus norvegicus) (UniProt P06762).
T2 sequence (whole entry): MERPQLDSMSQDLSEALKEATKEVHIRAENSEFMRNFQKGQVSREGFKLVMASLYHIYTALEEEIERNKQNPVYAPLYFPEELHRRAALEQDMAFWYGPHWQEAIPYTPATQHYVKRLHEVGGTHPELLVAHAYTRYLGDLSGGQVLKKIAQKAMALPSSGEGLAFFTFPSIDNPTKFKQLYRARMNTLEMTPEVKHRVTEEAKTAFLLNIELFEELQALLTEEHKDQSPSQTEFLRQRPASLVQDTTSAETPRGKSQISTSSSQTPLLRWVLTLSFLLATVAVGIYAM
Description: Activation of rat spleen microsome HO-1 preincubated for 10 mins followed by NADPH addition and measured after 15 mins by gas chromatography relative to control. Also noted: concentration or dose not given beside the values.

Assay [3] deals with T3, Heme oxygenase 2 (Rattus norvegicus, UniProt P23711).
T3 sequence (P23711 whole entry): T1 sequence (whole entry)
The assay can be described thus: Inhibition of Sprague-Dawley rat brain microsome HO-2 preincubated for 10 mins followed by beta-NADPH addition and measured after 15 mins by gas chromatography.

Assay [4] addresses T4, Heme oxygenase 1 (Rattus norvegicus, UniProt P06762).
T4 sequence (P06762 whole entry): T2 sequence (whole entry)
The assay can be described thus: Inhibition of Sprague-Dawley rat spleen microsome HO-1 preincubated for 10 mins followed by beta-NADPH addition and measured after 15 mins by gas chromatography.

Assay [5] has as its target T4, Heme oxygenase 1. Description: Inhibition of rat spleen microsome HO-1 preincubated for 10 mins followed by beta-NADPH addition and measured after 15 mins by gas chromatography.
The target of assay [6] is T3, Heme oxygenase 2. Description: Inhibition of rat brain microsome HO-2 preincubated for 10 mins followed by beta-NADPH addition and measured after 15 mins by gas chromatography.

The term IC50 denotes the concentration needed to halve the response being measured.

A value given as a limit tells only on which side of the number the result lay.

With `O=C1C=CC(=O)c2ccccc21`, the Activity worked out at 503% in assay [1] and 71% in assay [2].

In the case of `Cc1oc2c(c1C(=O)N1CCCC1)C(=O)c1ccccc1C2=O`, the values for the Activity in assay [1] and in assay [2] were 602% and 91%, respectively.

As to `c1ccc(CCCCCCn2ccnc2)cc1`, the results for the IC50 against Heme oxygenase 2 [3] and against Heme oxygenase 1 [4] were 20 µM and 2.8 µM, respectively.

Consider `O=C(Cn1ccnc1)c1cccc2ccccc12`, for which the IC50 is 10 µM on Heme oxygenase 2 [3] and 2.24 µM at Heme oxygenase 1 [4].

On to `O=C1CCCc2ccccc21`, for which the Activity in assay [1] amounted to 96%; in assay [2], 98%.

As to `O=C(Cc1ccc(Br)cc1)Cn1ccnn1`, the IC50 on Heme oxygenase 2 [3] worked out at 3 µM; against Heme oxygenase 1 [4], 0.39 µM.

As to `c1ccc(Cn2c(CC3CC4CCC3C4)nc3ccccc32)cc1` (stereo unspecified), the IC50 was 6.3 µM at Heme oxygenase 2 [3] and > 100 µM against Heme oxygenase 1 [4].

For the compound `CC(C)(C)N1COc2ccc3c4c(oc3c2C1)C(=O)c1ccccc1C4=O`, the Activity in assay [1] came to 345%; in assay [2], 85%.

`c1ccc(CSCCn2ccnc2)cc1` gave an IC50 on Heme oxygenase 2 [3] of 10 µM.

For `CC(C)N1CCN(c2ccc(OCC3COC(Cn4cncn4)(c4ccc(Cl)cc4Cl)O3)cc2)CC1` (stereo unspecified) [TERCONAZOLE], the figures for the IC50 on Heme oxygenase 1 [5] and at Heme oxygenase 2 [6] were 0.41 µM and 5 µM, respectively.

For `Brc1ccc(Cn2c(CC3CCCC3)nc3ccccc32)cc1`, the IC50 against Heme oxygenase 2 [3] turned out to be 8.4 µM; against Heme oxygenase 1 [4], 75.6 µM.

For the compound `Cc1ccc(S(=O)(=O)C[C@@H]2CO[C@@](CCc3ccc(Cl)cc3)(Cn3ccnc3)O2)cc1`, the values for the IC50 against Heme oxygenase 2 [3] and against Heme oxygenase 1 [4] were 3 µM and 6 µM, respectively.

`O=C(Cn1cncn1)c1ccc(Cc2ccccc2)cc1`: the results for the IC50 on Heme oxygenase 2 [3] and on Heme oxygenase 1 [4] were 7 µM and 2.7 µM, respectively.

In the case of `O[C@H](Cn1ccnc1)c1ccc(CCc2ccccc2)cc1`, the IC50 was 8 µM against Heme oxygenase 2 [3] and 0.225 µM on Heme oxygenase 1 [4].

For the compound `O=C1C(O)=C(Cl)C(=O)c2ccccc21`, the values for the Activity in assay [1] and in assay [2] were 108% and 106%, respectively.

As for `COc1ccc(CC(O)CCn2ccnc2)cc1` (stereo unspecified), the IC50 amounted to 6 µM on Heme oxygenase 2 [3] and 0.7 µM at Heme oxygenase 1 [4].

Regarding `Fc1ccc(CO[C@@H](CCc2ccc(Cl)cc2)Cn2ccnc2)cc1`, the IC50 was 1 µM on Heme oxygenase 2 [3] and 0.9 µM against Heme oxygenase 1 [4].

Regarding `O=C(Cn1ccnc1)c1ccc(Cl)c(Cl)c1`, the IC50 against Heme oxygenase 1 [4] stood at 1.24 µM.

As to `O=C(Cn1ccnc1)c1ccc(Cl)c(Cl)c1Cl`, the results for the IC50 against Heme oxygenase 2 [3] and on Heme oxygenase 1 [4] were 6 µM and 2.1 µM, respectively.

With `OC(Cn1ccnc1)CC12CC3CC(CC(C3)C1)C2` (stereo unspecified), the IC50 worked out at 6.5 µM on Heme oxygenase 2 [3] and 2 µM at Heme oxygenase 1 [4].

For `COc1ccc(NC2=C(N3CCCCC3)C(=O)c3ccccc3C2=O)cc1`, the Activity is 249% in assay [1] and 82% in assay [2].

For the compound `O=C(Cn1ccnc1)c1ccc(C2CCCCC2)cc1`, the IC50 on Heme oxygenase 2 [3] turned out to be 6 µM; at Heme oxygenase 1 [4] it was 5 µM.

Take `Cc1ccc(Cn2c(CC3CCCC3)nc3ccccc32)cc1`: the IC50 on Heme oxygenase 2 [3] came to 8.6 µM; against Heme oxygenase 1 [4], 18.1 µM.

As to `c1ccc(CCCCn2ccnc2)cc1`, the IC50 on Heme oxygenase 2 [3] amounted to 6.7 µM; against Heme oxygenase 1 [4], 0.25 µM.
